Test results reported in patent publication US20240415914A1, “Water Dispersible Cannabinoid Compositions” (priority 2021, published 2024).
Like-named read-outs stand apart in the source and are kept apart here.

Experiments:
[1] = assay type: physicochemical; details: stored at room temperature (21-25° C.)
Protocol: At each time period, 0.05 g of powder was dissolved in 10 ml-15 of ethanol, diluted to fall within the analytical range, and injected into the LCMSMS for analysis.

[2] = Stability of cannabinoid and Vitamin E components of Beverage 2 (AB Red) stored at 8° C. and 21-25° C., LCMSMS over 570 days
Protocol: The LCMSMS was calibrated for 0-50 ng/ml cannabinoids with the same resin material used in the preparation of the concentrates. At each time period, 100 μml of beverage was diluted with 10 ml of methanol and injected into the LCMSMS for analysis.

Cc1c(C)c2c(c(C)c1O)CC[C@@](C)(CCC[C@H](C)CCC[C@H](C)CCCC(C)C)O2 [α-Tocopherol]
Stability in Powder Concentrate (content by LCMSMS) ([1]; day 0): 4.85 mg/g powder | Stability in Powder Concentrate (content by LCMSMS) ([1]; day 1): 4.89 mg/g powder | Stability in Powder Concentrate (content by LCMSMS) ([1]; day 2): 4.79 mg/g powder | Stability in Powder Concentrate (content by LCMSMS) ([1]; day 3): 4.69 mg/g powder | Stability in Powder Concentrate (content by LCMSMS) ([1]; day 5): 4.99 mg/g powder | Stability in Powder Concentrate (content by LCMSMS) ([1]; day 8): 4.69 mg/g powder | Stability in Powder Concentrate (content by LCMSMS) ([1]; day 9): 4.75 mg/g powder | Stability in Powder Concentrate (content by LCMSMS) ([1]; day 10): 4.77 mg/g powder | Stability in Powder Concentrate (content by LCMSMS) ([1]; day 11): 5.04 mg/g powder | Stability in Powder Concentrate (content by LCMSMS) ([1]; day 12): 5.01 mg/g powder | Stability in Powder Concentrate (content by LCMSMS) ([1]; day 15): 5.07 mg/g powder | Stability in Powder Concentrate (content by LCMSMS) ([1]; day 16): 4.96 mg/g powder | Stability in Powder Concentrate (content by LCMSMS) ([1]; day 17): 4.94 mg/g powder | Stability in Powder Concentrate (content by LCMSMS) ([1]; day 18): 4.77 mg/g powder | Stability in Powder Concentrate (content by LCMSMS) ([1]; day 19): 5.04 mg/g powder | Stability in Powder Concentrate (content by LCMSMS) ([1]; day 22): 4.94 mg/g powder | Stability in Powder Concentrate (content by LCMSMS) ([1]; day 23): 4.91 mg/g powder | Stability in Powder Concentrate (content by LCMSMS) ([1]; day 24): 5.00 mg/g powder | Stability in Powder Concentrate (content by LCMSMS) ([1]; day 25): 5.06 mg/g powder | Stability in Powder Concentrate (content by LCMSMS) ([1]; day 26): 4.84 mg/g powder | Stability in Powder Concentrate (content by LCMSMS) ([1]; day 29): 4.85 mg/g powder | Stability in Powder Concentrate (content by LCMSMS) ([1]; day 30): 4.83 mg/g powder | Stability in Powder Concentrate (content by LCMSMS) ([1]; day 60): 4.91 mg/g powder | Stability in Powder Concentrate (content by LCMSMS) ([1]; day 90): 4.96 mg/g powder | Stability in Powder Concentrate (content by LCMSMS) ([1]; day 120): 4.93 mg/g powder | Stability in Powder Concentrate (content by LCMSMS) ([1]; day 150): 4.69 mg/g powder | Stability in Powder Concentrate (content by LCMSMS) ([1]; day 180): 4.70 mg/g powder | Stability in Powder Concentrate (content by LCMSMS) ([1]; day 210): 4.84 mg/g powder | Stability in Powder Concentrate (content by LCMSMS) ([1]; day 240): 5.03 mg/g powder | Stability in Powder Concentrate (content by LCMSMS) ([1]; day 270): 4.78 mg/g powder | Stability in Powder Concentrate (content by LCMSMS) ([1]; day 300): 4.81 mg/g powder | Stability in Powder Concentrate (content by LCMSMS) ([1]; day 330): 4.81 mg/g powder | Stability in Powder Concentrate (content by LCMSMS) ([1]; day 360): 4.83 mg/g powder | Stability in Powder Concentrate (content by LCMSMS) ([1]; day 390): 4.91 mg/g powder | Stability in Powder Concentrate (content by LCMSMS) ([1]; day 420): 4.69 mg/g powder | Stability in Powder Concentrate (content by LCMSMS) ([1]; day 450): 5.00 mg/g powder | Stability in Powder Concentrate (content by LCMSMS) ([1]; day 480): 4.98 mg/g powder | Stability in Powder Concentrate (content by LCMSMS) ([1]; day 510): 5.02 mg/g powder | Stability in Powder Concentrate (content by LCMSMS) ([1]; day 540): 5.03 mg/g powder | Stability in Powder Concentrate (content by LCMSMS) ([1]; day 570): 4.72 mg/g powder | Stability of Vitamin Es in AB Red ([2]; 8° C., 0 days): 25.3 µg/mL | Stability of Vitamin Es in AB Red ([2]; 8° C., 1 days): 25.2 µg/mL | Stability of Vitamin Es in AB Red ([2]; 8° C., 2 days): 24.9 µg/mL | Stability of Vitamin Es in AB Red ([2]; 8° C., 3 days): 25.3 µg/mL | Stability of Vitamin Es in AB Red ([2]; 8° C., 5 days): 24.2 µg/mL | Stability of Vitamin Es in AB Red ([2]; 8° C., 8 days): 23.7 µg/mL | Stability of Vitamin Es in AB Red ([2]; 8° C., 9 days): 24.6 µg/mL | Stability of Vitamin Es in AB Red ([2]; 8° C., 10 days): 24.9 µg/mL | Stability of Vitamin Es in AB Red ([2]; 8° C., 11 days): 23.9 µg/mL | Stability of Vitamin Es in AB Red ([2]; 8° C., 12 days): 24.4 µg/mL | Stability of Vitamin Es in AB Red ([2]; 8° C., 15 days): 25.6 µg/mL | Stability of Vitamin Es in AB Red ([2]; 8° C., 16 days): 24.5 µg/mL | Stability of Vitamin Es in AB Red ([2]; 8° C., 17 days): 23.6 µg/mL | Stability of Vitamin Es in AB Red ([2]; 8° C., 18 days): 24.1 µg/mL | Stability of Vitamin Es in AB Red ([2]; 8° C., 19 days): 24.0 µg/mL | Stability of Vitamin Es in AB Red ([2]; 8° C., 22 days): 25.0 µg/mL | Stability of Vitamin Es in AB Red ([2]; 8° C., 23 days): 23.2 µg/mL | Stability of Vitamin Es in AB Red ([2]; 8° C., 24 days): 24.3 µg/mL | Stability of Vitamin Es in AB Red ([2]; 8° C., 25 days): 23.6 µg/mL | Stability of Vitamin Es in AB Red ([2]; 8° C., 26 days): 25.2 µg/mL | Stability of Vitamin Es in AB Red ([2]; 8° C., 29 days): 23.5 µg/mL | Stability of Vitamin Es in AB Red ([2]; 8° C., 30 days): 24.2 µg/mL | Stability of Vitamin Es in AB Red ([2]; 8° C., 60 days): 24.2 µg/mL | Stability of Vitamin Es in AB Red ([2]; 8° C., 90 days): 23.1 µg/mL | Stability of Vitamin Es in AB Red ([2]; 8° C., 120 days): 25.2 µg/mL | Stability of Vitamin Es in AB Red ([2]; 8° C., 150 days): 25.4 µg/mL | Stability of Vitamin Es in AB Red ([2]; 8° C., 180 days): 23.6 µg/mL | Stability of Vitamin Es in AB Red ([2]; 8° C., 210 days): 23.5 µg/mL | Stability of Vitamin Es in AB Red ([2]; 8° C., 240 days): 23.6 µg/mL | Stability of Vitamin Es in AB Red ([2]; 8° C., 270 days): 23.6 µg/mL | Stability of Vitamin Es in AB Red ([2]; 8° C., 300 days): 23.1 µg/mL | Stability of Vitamin Es in AB Red ([2]; 8° C., 330 days): 22.9 µg/mL | Stability of Vitamin Es in AB Red ([2]; 8° C., 390 days): 23.1 µg/mL | Stability of Vitamin Es in AB Red ([2]; 8° C., 420 days): 22.3 µg/mL | Stability of Vitamin Es in AB Red ([2]; 8° C., 450 days): 22.7 µg/mL | Stability of Vitamin Es in AB Red ([2]; 8° C., 480 days): 21.8 µg/mL | Stability of Vitamin Es in AB Red ([2]; 8° C., 510 days): 22.0 µg/mL | Stability of Vitamin Es in AB Red ([2]; 8° C., 540 days): 21.8 µg/mL | Stability of Vitamin Es in AB Red ([2]; 8° C., 570 days): 21.5 µg/mL | Stability of Vitamin Es in AB Red ([2]; 21-25° C., 0 days): 25.3 µg/mL | Stability of Vitamin Es in AB Red ([2]; 21-25° C., 1 days): 24.4 µg/mL | Stability of Vitamin Es in AB Red ([2]; 21-25° C., 2 days): 24.1 µg/mL | Stability of Vitamin Es in AB Red ([2]; 21-25° C., 3 days): 23.8 µg/mL | Stability of Vitamin Es in AB Red ([2]; 21-25° C., 5 days): 22.9 µg/mL | Stability of Vitamin Es in AB Red ([2]; 21-25° C., 8 days): 24.5 µg/mL | Stability of Vitamin Es in AB Red ([2]; 21-25° C., 9 days): 23.3 µg/mL | Stability of Vitamin Es in AB Red ([2]; 21-25° C., 10 days): 23.0 µg/mL | Stability of Vitamin Es in AB Red ([2]; 21-25° C., 11 days): 24.4 µg/mL | Stability of Vitamin Es in AB Red ([2]; 21-25° C., 12 days): 23.4 µg/mL | Stability of Vitamin Es in AB Red ([2]; 21-25° C., 15 days): 24.8 µg/mL | Stability of Vitamin Es in AB Red ([2]; 21-25° C., 16 days): 25.1 µg/mL | Stability of Vitamin Es in AB Red ([2]; 21-25° C., 17 days): 24.4 µg/mL | Stability of Vitamin Es in AB Red ([2]; 21-25° C., 18 days): 24.9 µg/mL | Stability of Vitamin Es in AB Red ([2]; 21-25° C., 19 days): 25.4 µg/mL | Stability of Vitamin Es in AB Red ([2]; 21-25° C., 22 days): 25.4 µg/mL | Stability of Vitamin Es in AB Red ([2]; 21-25° C., 23 days): 24.6 µg/mL | Stability of Vitamin Es in AB Red ([2]; 21-25° C., 24 days): 23.5 µg/mL | Stability of Vitamin Es in AB Red ([2]; 21-25° C., 25 days): 25.5 µg/mL | Stability of Vitamin Es in AB Red ([2]; 21-25° C., 26 days): 24.3 µg/mL | Stability of Vitamin Es in AB Red ([2]; 21-25° C., 29 days): 24.4 µg/mL | Stability of Vitamin Es in AB Red ([2]; 21-25° C., 30 days): 24.6 µg/mL | Stability of Vitamin Es in AB Red ([2]; 21-25° C., 60 days): 24.4 µg/mL | Stability of Vitamin Es in AB Red ([2]; 21-25° C., 90 days): 24.3 µg/mL | Stability of Vitamin Es in AB Red ([2]; 21-25° C., 120 days): 23.7 µg/mL | Stability of Vitamin Es in AB Red ([2]; 21-25° C., 150 days): 23.4 µg/mL | Stability of Vitamin Es in AB Red ([2]; 21-25° C., 180 days): 23.3 µg/mL | Stability of Vitamin Es in AB Red ([2]; 21-25° C., 210 days): 22.7 µg/mL | Stability of Vitamin Es in AB Red ([2]; 21-25° C., 240 days): 23.1 µg/mL | Stability of Vitamin Es in AB Red ([2]; 21-25° C., 270 days): 23.1 µg/mL | Stability of Vitamin Es in AB Red ([2]; 21-25° C., 300 days): 23.5 µg/mL | Stability of Vitamin Es in AB Red ([2]; 21-25° C., 330 days): 22.6 µg/mL | Stability of Vitamin Es in AB Red ([2]; 21-25° C., 390 days): 22.7 µg/mL | Stability of Vitamin Es in AB Red ([2]; 21-25° C., 420 days): 22.5 µg/mL | Stability of Vitamin Es in AB Red ([2]; 21-25° C., 450 days): 22.3 µg/mL | Stability of Vitamin Es in AB Red ([2]; 21-25° C., 480 days): 21.6 µg/mL | Stability of Vitamin Es in AB Red ([2]; 21-25° C., 510 days): 21.4 µg/mL | Stability of Vitamin Es in AB Red ([2]; 21-25° C., 540 days): 21.0 µg/mL | Stability of Vitamin Es in AB Red ([2]; 21-25° C., 570 days): 21.4 µg/mL
